One series deals with PHKs. Description: Viability assay (MUH) in PHKs. It is filed as cell-based, human. The protocol: Effects of the used peptides on keratinocytes, PBMCs, and nasal and tracheal epithelial cell viability were tested using 4-methylumbelliferyl heptanoate (MUH). Briefly, cells were treated with peptides and respective peptide combinations for 24 h, followed by incubation with 100 μg/mL MUH (Sigma-Aldrich) in PBS for 1 h at 37 °C. The absolute fluorescence intensity at λex of 355 nm and λem of 460 nm was measured using a Fluoroskan II (Labsystems).
10 a: PHKs were treated with increasing concentrations of lugdunin for 24 hours and 11 subsequently expression of CAMP (LL-37) was analyzed and normalized to actin. […]
14 b+c: PHKs were treated with increasing concentrations of lugdunin for 24 hours and 15 subsequently the concentration of LL-37 and CXCL8 in the supernatant was analyzed . […]
18 d: Representative hematoxylin-eosin-stained paraffin-embedded human 3D skin 19 equivalent. […] After 24 hours, the concentration of LL-37 and CXCL8 in the 21 supernatant was analyzed. […] Significant differences to control treatments were analyzed 23 by an unpaired two-tailed t-test (*P<0.05). […]
26 f: PHKs were treated with 2 µM natural lugdunin, synthetic lugdunin, N -Acetyl lugdunin 27 (grey bars) or 100 ng/mL Pam2Cys or Pam3Cys (white bars) as positive control for 5 28 hours and subsequently expression of CXCL8 was analyzed and normalized to actin. […]

The test system of the next series is HEK293 cells. Description: CXCL8 release by HEK-control cells (LEGENDplex). In kind it is cell-based, human. As to conditions: lugdunin 2 µM, 5 h, two technical replicates, Fig 2a. The protocol: Fig. 2 Induction of chemokine (C-X-C motif) ligand 8/macrophage inflammatory protein-2 (CXCL8/MIP-2) by lugdunin is TLR2/MyD88-dependent. a HEK-control or HEK-TLR2 cells were treated with 2 μM lugdunin for 5 h and subsequently the CXCL8 concentration in the supernatant was analyzed by LEGENDplex^TM (BioLegend). Shown is one representative experiment of three independent experiments with two technical replicates ± s.e.m. b HEK-control or HEK-TLR2 cells were treated with increasing concentrations of lugdunin for 5 h and subsequently expression of CXCL8 was analyzed and normalized to actin. Shown is one representative experiment of three independent experiments with two technical replicates ± s.e.m. c Schematic overview of the mouse experiments: 6–8-week-old female C5BL/6 WT, MyD88-knockout (ko), or 5xTLR-ko mice were epicutaneously treated with 1.5 µg lugdunin or phosphate-buffered saline (PBS) as a control. […] Significant differences to control treatments were analyzed by an unpaired two-tailed t test (*P < 0.05; **P < 0.01; ***P < 0.001). f Representative MIP-2-stained paraffin-embedded mouse skin sections. […]
Supplementary Figure 2: CXCL8 controls and other cytokines in mouse skin 46 a: HEK-control cells or HEK -TLR2 cells were treated with 100 ng/mL Pam2Cys for 5 47 hours and subsequently the CXCL8 concentration in the supernatant was analyzed. […]

The text below walks through data of PMC6588697, “Lugdunin amplifies innate immune responses in the skin in synergy with host- and microbiota-derived factors” (Nature Communications, 2019).

Values joined by “and” are separate entries in the source; they are usually repeats but may differ in a detail not shown here. Identical values can stand only once.

On to Lugdunin, for which the “toxicity to the cell types analyzed (in words)” value with PHKs was “not toxic”. Moreover, the “CXCL8 concentration in supernatant” value in the series with HEK293 cells was 39.328 and 39.600.
